Measurements: publication PMC3551575 (Molecular microbiology, 2011)

Assays:
FurX = molecular target: T1, FurX (Cupriavidus pinatubonensis, UniProt Q46UZ9); test: affinity measurement, method only in supplement; format: binding
T1 sequence (Q46UZ9 1-342): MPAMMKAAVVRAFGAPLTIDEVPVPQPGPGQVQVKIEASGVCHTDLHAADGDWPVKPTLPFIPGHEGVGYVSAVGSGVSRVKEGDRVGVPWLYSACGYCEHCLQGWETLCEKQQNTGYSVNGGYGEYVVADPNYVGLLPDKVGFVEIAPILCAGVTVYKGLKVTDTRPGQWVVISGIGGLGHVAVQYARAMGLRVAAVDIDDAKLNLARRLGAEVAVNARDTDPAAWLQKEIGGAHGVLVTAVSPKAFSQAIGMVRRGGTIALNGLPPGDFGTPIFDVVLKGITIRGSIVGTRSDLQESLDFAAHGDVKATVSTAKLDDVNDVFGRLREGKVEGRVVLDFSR

[1] = molecular target: FurX, Zn-dependent alcohol dehydrogenase from Cupriavidus necator JMP134 (Cupriavidus necator JMP134); test: SEC-MALS

| stoichiometry N [1] | Compound | Kd (FurX) [µM] |
| --- | --- | --- |
| – | NC(=O)c1ccc[n+]([C@@H]2O[C@H](COP(=O)(O)OP(=O)(O)OC[C@H]3O[C@@H](n4cnc5c(N)ncnc54)[C@H](O)[C@@H]3O)[C@@H](O)[C@H]2O)c1 [NAD^+] | 87 |
| – | OCc1ccco1 [furfuryl alcohol] | > 1000 |
| 4 | FurX, Zn-dependent alcohol dehydrogenase from Cupriavidus necator JMP134 (enzyme) | – |
